In patent US20250325531A1, “TREATMENT OF SYSTOLIC DYSFUNCTION” (MyoKardia, Inc., priority 2024, published 2025):

Experiment: Single ascending oral dose pharmacokinetics in healthy volunteers (plasma and urine, LC MS/MS)
Format: in vivo, human
Conditions: for dose recovered in urine: 0-48 hours urine
Source text: This example describes the first-in-human study of Compound I. Based on its mechanism of action, Compound I may offer a targeted therapy for patients with DCM caused by genetic or nongenetic mechanisms. The study was a randomized, double-blind, placebo-controlled, sequential group, single-ascending (oral) dose study in healthy subjects aged 18-55 years. Eight dosing cohorts, each comprising eight healthy subjects, were enrolled. Within each cohort, subjects were randomized 6:2 to Compound I: placebo.
Subjects were resident at the clinical site for up to 5 days and 4 nights, from Day-1 (the day before dosing) to Day 4, and received a single dose of Compound I or placebo on Day 1. ECG telemetry was initiated 1 hour predose and continued through 48 hours postdose (Day 3). Any subject with a predose resting HR ≥80 beats per minute was considered ineligible and not treated. […] Subjects returned for a safety follow-up visit 7 days (+1 day) after dosing.
All randomized study subjects received either Compound I or matching placebo as a single oral dose after a fasting period of at least 6 hours. Compound I drug substance is a crystalline, free-base, synthetic molecule with a molecular weight of 435.4 g/mol.
Compound I was provided as a powder for oral suspension. Placebo was provided as calcium carbonate powder. Both treatments were dosed orally as a suspension. The suspension was made using Ora-Plus® suspending vehicle (Perrigo) and a cherry syrup flavoring vehicle (Humco), mixed 50% to 50%. The suspension was followed by approximately 100 mL water. The suspension was made up within 14 days from the time in which it was dosed which was consistent with the stability data on the suspension. The suspension was made up so the volume administered to the subjects who received Compound I was the same at 20 mL.
Each subject received a dose according to the cohort in which they were enrolled. Cohorts were enrolled sequentially, with each cohort receiving an escalated dose of Compound I. The doses administered were 3 mg, 10 mg, 25 mg, 50 mg, 100 mg, 175 mg, 350 mg, and 525 mg, respectively.
The concentrations of Compound I in human plasma and urine were quantitated by high performance liquid chromatography with tandem mass spectrometric detection (LC MS/MS) (Biological sample analysis study report Alturas AD17-726). Plasma samples were extracted by protein precipitation with acetonitrile containing internal standard MYK-5654. The calibration curves were linear over concentration range of 0.500 to 1000 ng/mL with a lower limit of quantification (LLOQ) of 0.500 ng/mL.
The PK Population included all subjects who received Compound I. Blood samples were collected for PK assessments. The actual timing of the samples may have been modified and/or up to an additional 2 samples may have been requested by the SRC after review of the data from previous cohorts. It was important that PK sampling occurred as closely as possible to the scheduled time (+10%). Both blood and urine samples were used for PK assessments.
In addition, for subjects who received placebo, a single plasma sample near the predicted tmax of Compound I was evaluated to confirm the lack of circulating Compound I. Plasma concentration data for Compound I was summarized using descriptive statistics, including mean, standard deviation (SD), median, minimum, and maximum values, and percent coefficient of variation. Other PK parameters included (but were not limited to) Cmax, tmax, AUC, t1/2, and MRT. Additionally, the apparent terminal-phase terminal half-life was calculated. The dose proportionality of AUC and Cmax was explored.

## Cn1cc(S(=O)(=O)[C@@](C)(F)C2CCN(C(=O)Nc3ccon3)CC2)c(C(F)F)n1 [Compound I, (R)-4-(1-((3-(difluoromethyl)-1-methyl-1H-pyrazol-4-yl)sulfonyl)-1-fluoroethyl)-N-(isoxazol-3-yl) piperidine-1-carboxamide]
350 mg
  dose recovered in urine: approximately 6.0%
  AUC0-24 Geometric Mean: 44703.88 ng·h/mL
  AUC0-48 Median: 66430.88 ng·h/mL
  AUC0-last Geometric Mean: 73185.05 ng·h/mL
  AUC0-last Median: 76161.9 ng·h/mL
  AUC0-∞ Geometric Mean: 73626.42 ng·h/mL
  AUC0-∞ Median: 76241.22 ng·h/mL
  CL/F Geometric Mean: 4.75 L/h
  CL/F Mean: 4.95 L/h
  CL/F Median: 4.75 L/h
  Extrapolation Geometric Mean: 0.37%
  Extrapolation Mean: 0.60%
  Extrapolation Median: 0.43%
  Half-Life Lambda Z Mean: 14.66 h
  Mean Residence Time Median: 22.73 h
  Tmax Geometric Mean: 4.84 h
  Tmax Mean: 4.95 h
525 mg
  dose recovered in urine: ~8.6%
  AUC0-24 Median: 38212.84 ng·h/mL
  AUC0-48 Geometric Mean: 56964.59 ng·h/mL
  AUC0-last Geometric Mean: 68111.84 ng·h/mL
  AUC0-∞ Geometric Mean: 68514.68 ng·h/mL
  CL/F Geometric Mean: 7.66 L/h
  CL/F Mean: 8.07 L/h
  CL/F Median: 7.64 L/h
  Cmax Geometric Mean: 2294.46 ng/mL
  Cmax Mean: 2350.00 ng/mL
  Extrapolation Geometric Mean: 0.22%
  Extrapolation Mean: 0.59%
  Extrapolation Median: 0.23%
  Half-Life Lambda Z Geometric Mean: 14.70 h
  Half-Life Lambda Z Median: 13.77 h
  Tmax Geometric Mean: 4.94 h
  Tmax Mean: 4.97 h
3 mg
  AUC0-48 Geometric Mean: 676.32 ng·h/mL
  AUC0-last Median: 713.41 ng·h/mL
  AUC0-∞ Geometric Mean: 722.23 ng·h/mL
  CL/F Geometric Mean: 4.15 L/h
  CL/F Mean: 4.26 L/h
  CL/F Median: 4.22 L/h
  Extrapolation Geometric Mean: 2.71%
  Extrapolation Mean: 2.78%
  Extrapolation Median: 2.82%
  Half-Life Lambda Z Geometric Mean: 11.10 h
10 mg
  CL/F Geometric Mean: 2.99 L/h
  CL/F Mean: 3.06 L/h
  CL/F Median: 2.88 L/h
  Cmax Mean: 139.17 ng/mL
  Extrapolation Geometric Mean: 1.59%
  Extrapolation Mean: 1.90%
  Extrapolation Median: 2.24%
  Half-Life Lambda Z Mean: 13.36 h
  Mean Residence Time Geometric Mean: 21.06 h
  Tmax Geometric Mean: 4.80 h
  Tmax Mean: 4.85 h
25 mg
  AUC0-last Geometric Mean: 6924.51 ng·h/mL
  AUC0-last Mean: 7161.62 ng·h/mL
  CL/F Geometric Mean: 3.55 L/h
  CL/F Mean: 3.69 L/h
  CL/F Median: 3.32 L/h
  Extrapolation Geometric Mean: 1.45%
  Extrapolation Mean: 1.72%
  Extrapolation Median: 1.92%
  Half-Life Lambda Z Geometric Mean: 13.14 h
  Half-Life Lambda Z Mean: 13.28 h
  Mean Residence Time Geometric Mean: 20.60 h
  Mean Residence Time Median: 20.07 h
  Tmax Geometric Mean: 4.64 h
  Tmax Mean: 4.67 h
50 mg
  AUC0-last Geometric Mean: 11075.03 ng·h/mL
  AUC0-last Median: 11185.34 ng·h/mL
  AUC0-∞ Geometric Mean: 11177.07 ng·h/mL
  AUC0-∞ Median: 11204.30 ng·h/mL
  CL/F Geometric Mean: 4.47 L/h
  CL/F Mean: 4.53 L/h
  CL/F Median: 4.46 L/h
  Extrapolation Geometric Mean: 0.46%
  Extrapolation Mean: 0.91%
  Extrapolation Median: 0.46%
  Mean Residence Time Geometric Mean: 20.79 h
  Mean Residence Time Mean: 20.98 h
  Tmax Geometric Mean: 4.66 h
  Tmax Mean: 4.69 h
100 mg
  AUC0-48 Median: 21561.98 ng·h/mL
  AUC0-last Geometric Mean: 21734.19 ng·h/mL
  AUC0-last Median: 22401.00 ng·h/mL
  CL/F Geometric Mean: 4.69 L/h
  CL/F Mean: 4.76 L/h
  CL/F Median: 5.33 L/h
  Extrapolation Geometric Mean: 0.36%
  Extrapolation Mean: 5.48%
  Extrapolation Median: 0.14%
  Half-Life Lambda Z Geometric Mean: 11.08 h
  Tmax Mean: 4.50 h
175 mg
  AUC0-48 Median: 32704.35 ng·h/mL
  AUC0-last Geometric Mean: 38235.62 ng·h/mL
  CL/F Geometric Mean: 4.57 L/h
  CL/F Mean: 4.66 L/h
  CL/F Median: 4.45 L/h
  Cmax Geometric Mean: 1301.37 ng/mL
  Cmax Mean: 1316.17 ng/mL
  Extrapolation Geometric Mean: 0.14%
  Extrapolation Mean: 0.17%
  Extrapolation Median: 0.16%
  Half-Life Lambda Z Mean: 15.83 h
  Mean Residence Time Geometric Mean: 24.44 h
  Mean Residence Time Median: 24.43 h
  Tmax Geometric Mean: 5.07 h
  Tmax Mean: 5.11 h
350 mg + 525 mg
  AUC0-24 Median: 38537.03 ng·h/mL
  AUC0-∞ Mean: 74358.88 ng·h/mL
  CL/F Geometric Mean: 6.04 L/h
  CL/F Mean: 6.51 L/h
  CL/F Median: 6.10 L/h
  Extrapolation Geometric Mean: 0.29%
  Extrapolation Mean: 0.59%
  Extrapolation Median: 0.32%
  Half-Life Lambda Z Geometric Mean: 14.51 h
  Mean Residence Time Mean: 24.28 h
  Tmax Geometric Mean: 4.89 h
  Tmax Mean: 4.96 h
All doses, 95% CI 0.8358-0.9417
  dose proportionality slope (power model): 0.8888
